According to BindingDB's records for doi:10.1074/jbc.M111.290619 (Washington University, 2011):
Values joined by “and” are separate entries in the source; they are usually repeats but may differ in a detail not shown here. Equal entries are not always repeated.

Key:
[1] = biological target: T1, Phosphoethanolamine N-methyltransferase 1 (Caenorhabditis elegans, UniProt Q86NB3); test: Radiochemical Assay; conditions: pH 8; 25 °C
T1 sequence (Q86NB3 whole entry): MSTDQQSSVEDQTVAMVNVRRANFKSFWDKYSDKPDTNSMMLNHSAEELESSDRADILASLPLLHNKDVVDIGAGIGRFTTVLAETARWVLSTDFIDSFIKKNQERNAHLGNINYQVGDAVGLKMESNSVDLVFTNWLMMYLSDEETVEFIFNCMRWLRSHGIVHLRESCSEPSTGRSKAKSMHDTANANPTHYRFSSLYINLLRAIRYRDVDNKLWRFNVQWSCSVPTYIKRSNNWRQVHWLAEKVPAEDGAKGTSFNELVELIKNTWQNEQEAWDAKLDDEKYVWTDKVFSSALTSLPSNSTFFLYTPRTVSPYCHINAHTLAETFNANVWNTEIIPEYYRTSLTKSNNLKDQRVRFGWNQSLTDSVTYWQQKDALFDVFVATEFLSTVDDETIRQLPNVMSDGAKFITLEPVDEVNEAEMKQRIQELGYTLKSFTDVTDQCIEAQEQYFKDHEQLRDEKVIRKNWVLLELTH
Description: (§1) A radiochemical assay was used to measure enzymatic activity.

[2] = biological target: T2, Phosphoethanolamine N-methyltransferase 2 (Caenorhabditis elegans, UniProt Q22993); test: Radiochemical Assay; conditions: pH 8; 25 °C
Description: as §1

[3] = biological target: T1, Phosphoethanolamine N-methyltransferase 1; test: Calorimetric (ITC) Assay; conditions: pH 7.5
Method: (§2) For standard ITC analysis of ligand binding, proteins were dialyzed overnight in 25 mm Hepes (pH 7.5), 100 mm NaCl, 5 mm -mercaptoethanol, and 5% glycerol at 4 °C. Ligands (i.e. AdoMet, AdoCys, pEA, and pCho) were prepared in the same buffer. AdoMet and AdoCys concentrations were determined spectrophotometrically (A260 nm; = 15,400 m 1 cm 1) (19). ITC experiments were performed using a VP-ITC calorimeter (Microcal, Inc.). Injections (10 ul) of ligand were added to a sample solution containing protein using a computer-controlled 250-ul microsyringe at intervals of 5 6 min.

[4] = biological target: T2, Phosphoethanolamine N-methyltransferase 2; test: Calorimetric (ITC) Assay; conditions: pH 7.5
Method: as §2

T2 sequence (Q22993 whole entry): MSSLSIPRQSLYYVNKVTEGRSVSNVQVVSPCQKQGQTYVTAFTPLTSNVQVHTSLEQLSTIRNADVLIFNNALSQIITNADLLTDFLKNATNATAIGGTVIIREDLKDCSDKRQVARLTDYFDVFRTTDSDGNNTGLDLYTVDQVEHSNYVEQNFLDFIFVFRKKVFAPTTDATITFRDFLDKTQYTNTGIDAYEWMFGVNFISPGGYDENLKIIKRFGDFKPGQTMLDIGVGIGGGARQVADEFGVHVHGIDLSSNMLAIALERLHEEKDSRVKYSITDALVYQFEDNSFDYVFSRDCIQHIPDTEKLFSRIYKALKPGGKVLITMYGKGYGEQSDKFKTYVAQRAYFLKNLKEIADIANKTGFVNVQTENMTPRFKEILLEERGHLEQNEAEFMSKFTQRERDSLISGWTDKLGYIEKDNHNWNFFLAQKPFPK

Compound	IC50 [1]	IC50 [2]	Kd ([3]; 4 °C)	Kd ([3]; 5 °C)	Kd ([3]; 10 °C)	Kd ([3]; 15 °C)	Kd ([3]; 20 °C)	Kd ([3]; 25 °C)	further results
Nc1c2c(nc3ccccc13)CCCC2	23400 µM	3500 µM							
Nc1ncnc2c1ncn2[C@@H]1O[C@H](C[C@@H](N)CC[C@H](N)C(=O)O)[C@@H](O)[C@H]1O [Sinefungin]	33.8 µM	91.5 µM							
CCCCCCCCCCCCCCCCOP(=O)([O-])OCC[N+](C)(C)C [n-hexadecylphosphocholine]	125 µM	12.5 µM							
Nc1ncnc2c1ncn2[C@H]1O[C@@H](CSCC[C@@H](N)C(=O)O)[C@H](O)[C@@H]1O [AdoCys]			2.9 µM and 2.2 µM and 1.3 µM and 0.9 µM	0.7 µM	0.8 µM	1.1 µM	1.6 µM	2.5 µM	Kd ([4]; 4 °C): 8.6 µM and 6 µM and 9.3 µM and 6.1 µM; Kd ([4]; 5 °C): 2 µM; Kd ([4]; 10 °C): 2.5 µM; Kd ([4]; 15 °C): 3 µM; Kd ([4]; 20 °C): 4.2 µM; Kd ([4]; 25 °C): 5.4 µM
CCN(CC)Cc1cc(Nc2ccnc3cc(Cl)ccc23)ccc1O [Amodiaquin]	3400 µM	3100 µM							
C[S+](CC[C@H](N)C(=O)[O-])C[C@H]1O[C@@H](n2cnc3c(N)ncnc32)[C@H](O)[C@@H]1O (stereo partly drawn) [(2S)-2-amino-4-({[(2S,3S,4R,5R)-5-(6-amino-9H-purin-9-yl)-3,4-dihydroxyoxolan-2-yl]methyl}(methyl)sulfanylium)butanoate]			47.2 µM and 19.1 µM and 10.7 µM and 5.8 µM	6.1 µM	8.2 µM	11.4 µM	16.6 µM	26.7 µM	
